Assay [1] has as its system human platelet aggregation. Nature of the assay: Test A: Inhibition of Human Platelet Aggregation. The following applies: human platelet rich plasma, in vitro, collagen-induced, 37° C, 15 minutes. Format: cell-based. How it is done:
The ability of test compounds to inhibit platelet aggreagation was determined by a modification of the turbidometric technique of Born (Nature, 194: 927 [1962]). Blood was collected from human volunteer who had not ingested aspirin or aspirin-containing products within the preceding two weeks in heparinized containers and was allowed to settle for one (1) hour. The platelet rich plasma (prp) supernates were collected and cooled. Siliconized glassware was used throughout.
In a representative assay 1.9 ml of PRP and 0.2 ml of test compound at the appropriate concentrations (0.001 to 100 mcgm), or 0.2 ml of distilled water (control procedure) were placed in sample cuvettes. The cuvettes were placed in a 37° C incubation block for 15 minutes, and then in a spectrophotometer linked to a strip chart recorder. After 30-60 seconds, 0.2 ml of a solution, prepared by diluting a calf-skin collagen solution 1:9 with Tyrodes' Solution, was added to each cuvette. Platelet aggregation was evidenced by a decrease in optical density.
An ED50 value was then determined graphically.

Assay [2] deals with gastric secretion. Description: Test B: Inhibition of Rodent Gastric Secretion (pylorus-ligated rat). The assay is classed as in vivo. The settings on record: subcutaneous, 2 x 1.5 mg/kg (total 3.0 mg/kg), 4 hours after pyloric ligation. How it is done: A procedure based on that described by Lipmann (J. Pharm. Pharmacol., 21:335 [ 1968]) was used to assess the influence of test compounds on gastric secretion. Rats of one sex weighing 150 to 200 g were randomly divided into groups of six animals each and fasted for 48 hours previously to the experiments, water being available adlibitum. The animals were anesthetized with ether, the abdomen was opened through a midline incision and the pylorus was ligated. Test compounds were diluted from stock solution so as to administer a dose of 1.5 mg/kg in a volume equivalent to 1 ml/kg. Subcutaneous injections were applied immediately after surgery and again 2 hours later, so that a total dose of 3.0 mg/kg was administered. Dilutions were made with phosphate buffer (pH 7.38) as recommended by Lee et al. (Prostaglandins 3:29 [ 1973]), in order to insure adequate stability of drugs at the subcutaneous depot. Each compound was tested in one group of rats; an additional control group received only the vehicle.
Four hours after pyloric ligation the animals were killed with ether, the cardias ligated and the stomachs removed. The volume of gastric secretion was measured and the contents centrifuged at 5000 rpm for 10 minutes. Total acid in the supernatant was titrated against a 0.1 N sodium hydroxide solution and the amount expressed in mEq.
Volume and total acid values of the treated group were compared with those of the controls by the "T" test. Antisecretory activity was scored according to the following scale: […]

Assay [3] deals with femoral blood flow. Description: Test C: Increase in Canidae Femoral Blood Flow. The following applies: anesthetized dog, intraarterial, 0.001 to 10 mcg. Format: in vivo. The method, then:
The peripheral vasodilator or constrictor effects of test compounds were determined in mongrel dogs of either sex, weighing between 10 and 20 kg anesthestized intravenously with 35 mg/kg of sodium pentobarbital. An external iliac artery was dissected immediately above the femoral arch for a length of approximately 5 cm and a previously calibrated, non-connulating electromagnetic flowmeter sensor with a lumen between 2.5 and 3.5 mm was placed snugly around the vessel. Cannulas were placed in a branch of the artery arising distally to the location of the flowmeter sensor for intraarterial drug administrations, in the contralateral femoral artery for systemic blood pressure recordings and in the trachea for artificial respiration with room air. Femoral blood flow and systemic blood pressure were continuously recorded with an electromagnetic flowmeter and pressure tranducer, respectively.
After an adequate control period, test compounds were injected intraarterially at one log-spaced doses ranging from 0.001 to 10 mcg., in a volume of 0.5 ml and at 5 to 10 minute intervals. Maximum changes in bloodflow, as well as any variations in blood pressure, were tabulated for each dose in absolute values (ml/min. and mmHg). The calculations were made taking as control values those existing immediately before administration of each dose. The direction of the observed change (plus for increase and minus for decrease) was also noted. The dose changing bloodflow by 100 ml/min (ED100 ml/min) was calculated graphically and was used for scoring activity as follows: […]

The test system of assay [4] is blood pressure. Description: Test D: Decrease in Normal Feline Blood Pressure and Heart Rate (anesthetized cat). The settings on record: intravenous, 0.01 to 10.0 mcg/kg, judged only on hypotension. Format: in vivo. How it is done: The acute effects of test compounds on blood pressure and heart rate were determined in cats of either sex anesthetized with a mixture of pentobarbital sodium (35 mg/kg, i.v.) and barbital sodium (100 mg/kg, i.v.). Cannulas were placed in the trachea to allow adequate spontaneous ventilation, in a femoral artery for blood pressure recording with a strain gage transducer, and in a saphenous vein for drug administration. Heart rate was recorded by means of a cardiotachometer driven by the R wave of the electrocardiogram. After a period of 10 minutes of stable recordings of blood pressure and heart rate, the test compound was administered intravenously at doses increasing from 0.01 to 10.0 mcg/kg, spaced one log and injected at 10 minutes intervals. All doses were injected in a volume of 0.1 ml/kg. Modifications of blood pressure and heart rate induced by the test compound were expressed both in absolute units (mmHg and beats/minutes) and as percent of values recorded immediately before administration of each dose. Biphasic responses were tabulated in the order in which they occur. The direction of the observed changes was also noted (+ for increases and - for decreases).
Activity of compounds in this test was judged only on the basis of the degree of hypotension observed. Thus, the ED50 mmHg (dose decreasing blood pressure by 50 mmHg) was calculated graphically and the compound scored according to the following scale: […]

As to `O=C(O)CCCCCC[C@H]1C(=O)CC[C@@H]1/C=C/[C@H](O)C1CC2CCC2C1` (mixture of isomers) [TR-4096, dl-7-{5-oxo-2R[3R-hydroxy-3-(bicyclo[3.2.0]hept-3-yl)-1E-propenyl[cyclopent-1R-yl}heptanoic acid], in assay [1], the “Activity Value Test A (ED50, inhibition of platelet aggregation)” value was 1 (>1.0). In addition, the “Activity Value Test B (% decrease in acidity)” value in assay [2] was 0 (<26). The “Activity Value Test C (ED100 ml/min, dose changing bloodflow by 100 ml/min)” value (“Activity Value Test C” below) in assay [3] is recorded as 2 (0.11 - 1.0). Besides, in assay [4], the “Activity Value Test D (ED50 mmHg, dose decreasing blood pressure by 50 mmHg)” value was 0 (>10.0).

Take `O=C(O)CCCCCC[C@H]1C(=O)CC[C@@H]1/C=C/[C@@H](O)C1CC2CCC2C1` (mixture of isomers) [TR-4097, dl-7-{5-oxo-2R-[3S-hydroxy-3-(bicyclo[3.2.0]hept-3-yl)-1E-propenyl]cyclopent-1R-yl}heptanoic acid]: in assay [1], the “Activity Value Test A (ED50, inhibition of platelet aggregation)” value is given as 1 (>1.0). For the same compound, the “Activity Value Test B (% decrease in acidity)” value in assay [2] is given as 2 (26-50, significant). In assay [3], the “Activity Value Test C” value was 1 (1.01 - 10.0). Besides, the “Activity Value Test D (ED50 mmHg, dose decreasing blood pressure by 50 mmHg)” value in assay [4] is recorded as 0 (>10.0).

For the compound `O=C(O)CCC/C=C\C[C@H]1C(=O)CC[C@@H]1/C=C/[C@@H](O)C1CC2CCC2C1` (mixture of isomers) [TR-4102, dl-7-{5-oxo-2R-[8 3S-hydroxy-3-(bicyclo[3.2.0]hept-3-yl)-1E-propenyl]cyclopent-1R-yl}hept-5Z-enoic acid], the “Activity Value Test A (ED50, inhibition of platelet aggregation)” value in assay [1] is on record as 1 (>1.0). The “Activity Value Test B (% decrease in acidity)” value in assay [2] is listed as 4 (76-100). Further, the “Activity Value Test C” value in assay [3] was 2 (0.11 - 1.0). Moreover, the “Activity Value Test D (ED50 mmHg, dose decreasing blood pressure by 50 mmHg)” value in assay [4] is listed as 0 (>10.0).

As to `O=C(O)CCC/C=C\C[C@H]1C(=O)CC[C@@H]1/C=C/[C@H](O)CCCCC1CCCC2CCCCC21` (mixture of isomers) [TR-4173, dl-7-{5-oxo-2R-[3R-hydroxy-7-(bicyclo[4.4.0]dec-2-yl)-1E-heptenyl]cyclopent-1R-yl}hept-5Z-enoic acid], in assay [1], the “Activity Value Test A (ED50, inhibition of platelet aggregation)” value is reported as 1 (>1.0).

For `O=C(O)CCC/C=C\C[C@H]1C(=O)CC[C@@H]1/C=C/[C@H](O)CCCCC1CCCC2CCCCC21` (relative stereo) [TR-4174, dl-7-{5-oxo-2R-[3R-hydroxy-7-(bicyclo[4.4.0]dec-2-yl)-1E-heptenyl]cyclopent-1R-yl}-hept-5Z-enoic acid], the “Activity Value Test A (ED50, inhibition of platelet aggregation)” value in assay [1] was 1 (>1.0).

In the case of `O=C(O)CCCCCC[C@H]1C(=O)CC[C@@H]1/C=C/[C@@H](O)CCCCC1CCCC2CCCCC21` (relative stereo) [TR-4189, dl-7-{5-oxo-2R[3S-hydroxy-7-(bicyclo[4.4.0]dec-2-yl)-1E-heptenyl]cyclopent-1R-yl}heptanoic acid], the “Activity Value Test A (ED50, inhibition of platelet aggregation)” value in assay [1] is 1 (>1.0). In addition, in assay [2], the “Activity Value Test B (% decrease in acidity)” value is on record as 0 (<26).

In the case of `O=C(O)CCCCCC[C@H]1C(=O)CC[C@@H]1/C=C/[C@H](O)CCCCC1CCCC2CCCCC21` (relative stereo) [TR-4190, dl-7-{5-oxo-2R-[3R-hydroxy-7-(bicyclo[4.4.0]dec-2-yl)-1E-heptenyl]cyclopent-1R-yl}heptanoic acid], in assay [1], the “Activity Value Test A (ED50, inhibition of platelet aggregation)” value is 1 (>1.0). The “Activity Value Test B (% decrease in acidity)” value in assay [2] is listed as 0 (<26).

As for `COC(=O)CCCCCC[C@H]1C(=O)C[C@@H](O)[C@@H]1/C=C/[C@H](O)C1CC2CCC2C1` (stereo partly drawn) [TR-4098, methyl 7-{3R-hydroxy-5-oxo-2R-[3R-hydroxy-3-(bicyclo[3.2.0]hept-3-yl)-1E-propenyl]cyclopent-1R-yl]heptanoate], the “Activity Value Test B (% decrease in acidity)” value in assay [2] is listed as 4 (76-100). The “Activity Value Test C” value in assay [3] is 2 (0.11 - 1.0). In assay [4], the “Activity Value Test D (ED50 mmHg, dose decreasing blood pressure by 50 mmHg)” value is 2 (0.11 - 1.0).

Take `COC(=O)CCCCCC[C@H]1C(=O)C[C@@H](O)[C@@H]1/C=C/[C@@H](O)C1CC2CCC2C1` (stereo partly drawn) [TR-4099, methyl 7-{3R-hydroxy-5-oxo-2R-[2S-hydroxy-3-(bicyclo[3.2.0]hept-3-yl)-1E-propenyl]cyclopent-1R-yl)heptanoae]: in assay [1], the “Activity Value Test A (ED50, inhibition of platelet aggregation)” value is reported as 2 (>0.1≤1.0). For the same compound, the “Activity Value Test B (% decrease in acidity)” value in assay [2] was 1 (26-50, not significant). Also, the “Activity Value Test C” value in assay [3] is listed as 0 (>10.0). Moreover, the “Activity Value Test D (ED50 mmHg, dose decreasing blood pressure by 50 mmHg)” value in assay [4] is reported as 0 (>10.0).

`COC(=O)CCCCCC[C@H]1C(=O)C[C@@H](O)[C@@H]1/C=C/[C@H](O)CCCCC1CCC2CCC1C2` (stereo partly drawn) [TR-4116, methyl 7-{3R-hydroxy-5-oxo-2R-[3R-hydroxy-7-(bicyclo[3.2.1]oct-2-yl)-1E-heptenyl]cyclopent-1R-yl}heptanoate]: the “Activity Value Test A (ED50, inhibition of platelet aggregation)” value in assay [1] was 1 (>1.0). Further, in assay [2], the “Activity Value Test B (% decrease in acidity)” value is on record as 0 (<26). Moreover, the “Activity Value Test C” value in assay [3] is reported as 0 (>10.0). For the same compound, in assay [4], the “Activity Value Test D (ED50 mmHg, dose decreasing blood pressure by 50 mmHg)” value is reported as 0 (>10.0).

Consider `COC(=O)CCCCCC[C@H]1C(=O)C[C@@H](O)[C@@H]1/C=C/[C@@H](O)CCCCC1CCC2CCC1C2` (stereo partly drawn) [TR-4117, methyl 7-{3R-hydroxy-5-oxo-2R-[3S-hydoxy-7-(bicyclo[3.2.1]oct-2-yl)-1E-heptenyl]cyclopent-1R-yl}heptanoate], for which the “Activity Value Test A (ED50, inhibition of platelet aggregation)” value in assay [1] is on record as 1 (>1.0). In addition, the “Activity Value Test B (% decrease in acidity)” value in assay [2] was 0 (<26). The “Activity Value Test C” value in assay [3] was 0 (>10.0). For the same compound, the “Activity Value Test D (ED50 mmHg, dose decreasing blood pressure by 50 mmHg)” value in assay [4] is on record as 0 (>10.0).

On to `COC(=O)CCCCCC[C@H]1C(=O)C=C[C@@H]1/C=C/[C@@H](O)CCCCC1CCC2CCC1C2` (stereo partly drawn) [TR-4118, methyl 7-{5-oxo-2R-[3S-hydroxy-7-(bicyclo[3.2.1]oct-2-yl)-1E-heptenyl]cyclopent-3-en-1R-yl}heptanoate], for which, in assay [1], the “Activity Value Test A (ED50, inhibition of platelet aggregation)” value is listed as 1 (>1.0). Besides, the “Activity Value Test B (% decrease in acidity)” value in assay [2] is listed as 0 (<26). For the same compound, the “Activity Value Test C” value in assay [3] is 0 (>10.0). Moreover, the “Activity Value Test D (ED50 mmHg, dose decreasing blood pressure by 50 mmHg)” value in assay [4] is 0 (>10.0).

Regarding `COC(=O)CCCCCC[C@@H]1[C@@H](/C=C/[C@@H](O)C2CC3CCC3C2)[C@H](O)C[C@@H]1O` (stereo partly drawn) [TR-4711, methyl 7-{3R, 5S-dihydroxy-2R-[3S-hydroxy-3-(bicyclo[3.2.0]hept-3-yl)-1E-propenyl]cyclopent-1R-yl}heptanoate], the “Activity Value Test B (% decrease in acidity)” value in assay [2] was 1 (26-50, not significant).

For `COC(=O)CCCCCC[C@@H]1[C@@H](/C=C/[C@@H](O)C2CC3CCC3C2)[C@H](O)C[C@H]1O` (stereo partly drawn) [TR-4712, methyl 7-{3R,5R-dihydroxy-2R-[3S-hydroxy-3-(bicyclo[3.2.0]hept-3-yl)-1E-propenyl]cyclopent-1R-yl}heptanoate], in assay [2], the “Activity Value Test B (% decrease in acidity)” value is 2 (26-50, significant).
